The values below come from ChEMBL document CHEMBL1201862, “PubChem BioAssay data set” (2004).

Assay in all cases: NCI-60 cell line screen, 48 h
Assay [1] deals with CAKI-1.
Assay [2] relates to HL-60.
The test system of assay [3] is HT-29.
Assay [4] deals with NCI-H226.
Assay [5] concerns NCI-H460.
Assay [6] relates to OVCAR-3.
Assay [7] concerns OVCAR-8.
The subject of assay [8] is RPMI-8226.
Assay [9] has as its system SF-268.
For assay [10], the system named is SK-MEL-28.
Assay [11] deals with SK-MEL-5.
Assay [12] has as its system SK-OV-3.
The test system of assay [13] is SNB-75.
Assay [14] deals with UACC-257.
For assay [15], the system named is UACC-62.
In assay [16] the test system is DU-145.
Assay [17] concerns HCT-15.
In assay [18] the test system is MCF7.
Assay [19] relates to MDA-MB-435.

Each structure is given as a SMILES string.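 These data come from cells grown in 96-well plates and exposed to compound for 48 hours at five concentrations. GI50 marks 50% less growth.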 Calls of active or inactive are those of the source. Rule as the data show it: active = GI50 up to about 1.1 µM and inactive = higher. Bounds are passed on as bounds.

On to `Brc1ccc(-c2nnc(-c3nn(-c4ccccc4)c4nc5ccccc5nc34)o2)cc1`, for which the GI50 is > 100 µM (inactive) in [1]; 27.3 µM (inactive) in assay [2]; > 100 µM (inactive) in [3]; > 100 µM (inactive) in assay [4]; > 100 µM (inactive) in [5]; 95.7 µM (inactive) in assay [6]. Moreover, the GI50 in [7] is > 100 µM (inactive); in [8], 30.5 µM (inactive); in [9], > 100 µM (inactive); in [10], > 100 µM (inactive); in assay [11], 21.3 µM (inactive); in assay [12], > 100 µM (inactive). The GI50 in [13] is > 100 µM (inactive); in assay [14], 92 µM (inactive); in [15], > 100 µM (inactive).
`CS(=O)(=O)Nc1ccc2c(c1)N(S(C)(=O)=O)CC2CCl` (configuration not stated): the GI50 in assay [1] is > 100 µM (inactive); in assay [16], > 100 µM (inactive); in assay [17], more than 100 µM; in assay [2] it was > 100 µM (inactive); in [3], > 100 µM (inactive); in [18] it was > 100 µM (inactive). For the same molecule, the GI50 in [19], in assay [4], in [5], in assay [6], in assay [7] and in assay [8] was > 100 µM (inactive) each time. Moreover, the GI50 in assay [9], in [10], in [11], in assay [13], in [14] and in assay [15] was > 100 µM (inactive) each time.
Take `CCCCCCCCCC1CC(=O)Oc2cccc(O)c21` (configuration not stated): the GI50 in [1] was 32.7 µM (inactive); in assay [17], 23.4 µM; in assay [2], 27.9 µM (inactive); in assay [3] it was 24.1 µM (inactive); in [4], 6.84 µM (inactive); in assay [5] it was 9.91 µM (inactive). Further, the GI50 in assay [6] is 16.3 µM (inactive); in assay [7] it was 31.8 µM (inactive); in assay [8], 28.4 µM (inactive); in [9], 30.3 µM (inactive); in [10], 29.6 µM (inactive); in assay [11] it was 15.2 µM (inactive). The GI50 in [12] was 7.69 µM (inactive); in assay [13] it was 40 µM (inactive); in assay [14] it was 41.3 µM (inactive); in [15] it was 31.5 µM (inactive).
For `CCOC(=O)Nn1c(C)nnc1CC#N`, the GI50 in assay [1] is > 100 µM (inactive); in [16], > 100 µM (inactive); in assay [17] it was more than 100 µM; in [2], > 100 µM (inactive); in [3], > 100 µM (inactive); in assay [18] it was > 100 µM (inactive). Besides, the GI50 in [4], in assay [5], in assay [6], in assay [7], in assay [8] and in assay [9] was > 100 µM (inactive) each time. Moreover, the GI50 in assay [10], in [11], in assay [13], in [14] and in assay [15] was > 100 µM (inactive) in each case.
Turning to `COc1cc2c(cc1C)NC(=O)/C2=C/c1cccnc1`, the GI50 was 10.1 µM (inactive) in [1]; 12.3 µM (inactive) in assay [16]; 11 µM in assay [17]; 4.04 µM (inactive) in [2]; 17.7 µM (inactive) in [3]; 5.74 µM (inactive) in [18]. Moreover, the GI50 in assay [19] is 12.9 µM (inactive); in [5], 9.02 µM (inactive); in [6], 12.3 µM (inactive); in assay [7] it was 14.6 µM (inactive); in assay [9], 15.6 µM (inactive); in assay [10], 45.9 µM (inactive). Also, the GI50 is 11 µM (inactive) in assay [11], 7.03 µM (inactive) in assay [12] and 45 µM (inactive) in [13].
With `CCOC(=O)C1(C)CCC(C(=O)OC)C1=O` (configuration not stated), the GI50 in [1] was > 100 µM (inactive); in assay [17], 20.2 µM; in assay [2], 53.1 µM (inactive); in assay [3], 65.5 µM (inactive); in assay [4], > 100 µM (inactive); in assay [5], 15.3 µM (inactive). For the same molecule, the GI50 in assay [6], in assay [7], in assay [8], in [9], in [10] and in assay [11] was > 100 µM (inactive) throughout. For the same molecule, the GI50 in assay [12], in assay [13], in assay [14] and in assay [15] was > 100 µM (inactive) throughout.
Take `O=[N+]([O-])c1cc(Cl)ccc1S(=O)(=O)c1ccc(Cl)cc1[N+](=O)[O-]`: the GI50 in assay [1] is 19.7 µM (inactive); in assay [17], 17.3 µM; in assay [2], 19.9 µM (inactive); in assay [3], 16.8 µM (inactive); in assay [4], 12.4 µM (inactive); in assay [5] it was 16.1 µM (inactive). Besides, the GI50 in assay [6] was 17.3 µM (inactive); in assay [7] it was 16 µM (inactive); in [8], 29.6 µM (inactive); in assay [9], 15 µM (inactive); in [10], 18.1 µM (inactive); in assay [11], 14.6 µM (inactive). The GI50 is 15.8 µM (inactive) in assay [12], 15.7 µM (inactive) in [13], 13.5 µM (inactive) in assay [14] and 16.9 µM (inactive) in assay [15].
For `[N-]=[N+]=Nc1cccc(-c2nnc(Cl)cc2O)c1`, the GI50 in assay [16] was > 100 µM (inactive); in [17], more than 100 µM; in assay [2] it was > 100 µM (inactive); in assay [3], > 100 µM (inactive); in [18], > 100 µM (inactive); in assay [19], > 100 µM (inactive). Further, the GI50 in [4], in assay [5], in [6], in [7], in [8] and in assay [9] was > 100 µM (inactive) each time. In addition, the GI50 was > 100 µM (inactive) in assay [10]; > 100 µM (inactive) in assay [12]; 89.7 µM (inactive) in [13]; > 100 µM (inactive) in assay [14]; > 100 µM (inactive) in [15].
With `C(=N\N=C1NCCCCN1)/c1ccc2ccccc2c1`, the GI50 in assay [16] is 67.3 µM (inactive); in [17], 28.1 µM; in assay [2], 23.3 µM (inactive); in [3], 22.8 µM (inactive); in [18] it was 29.4 µM (inactive); in assay [19], 17.2 µM (inactive). The GI50 in assay [4] was 24.7 µM (inactive); in assay [5] it was 22.3 µM (inactive); in [6], 46.8 µM (inactive); in assay [7] it was 43.7 µM (inactive); in [8], 27.5 µM (inactive); in assay [9], 45.3 µM (inactive). Besides, the GI50 was 21.3 µM (inactive) in assay [10]; 17.4 µM (inactive) in assay [11]; 27.2 µM (inactive) in [12]; 13 µM (inactive) in assay [13]; 21.9 µM (inactive) in assay [14]; 31 µM (inactive) in assay [15].
Turning to `Fc1ccc(C2NC(=S)NC3=C2CCOc2c3ccc3ccccc23)cc1` (configuration not stated), the GI50 is 16.6 µM (inactive) in assay [1]; > 100 µM (inactive) in assay [16]; 18.7 µM in [17]; 19 µM (inactive) in assay [2]; 15.7 µM (inactive) in assay [18]; 8.53 µM (inactive) in [19]. For the same molecule, the GI50 in assay [5] is 30.7 µM (inactive); in [6], 44.1 µM (inactive); in [7], > 100 µM (inactive); in [8] it was 19.8 µM (inactive); in assay [9], 45.1 µM (inactive); in assay [11], 11.3 µM (inactive). For the same molecule, the GI50 in assay [12] is 82.4 µM (inactive); in [13], 13.6 µM (inactive); in assay [14], 53.8 µM (inactive).
For `O=C1CCC(O)=C1O`, the GI50 was > 100 µM (inactive) in assay [1]; more than 100 µM in [17]; > 100 µM (inactive) in assay [2]; > 100 µM (inactive) in [3]; > 100 µM (inactive) in assay [4]; > 100 µM (inactive) in [5]. In addition, the GI50 in assay [6], in assay [7], in assay [8], in [9], in assay [10] and in assay [11] was > 100 µM (inactive) throughout. Further, the GI50 in [12], in assay [13] and in assay [15] was > 100 µM (inactive) throughout.
Take `O=c1/c(=C/c2ccc3c(c2)OCO3)sc2nnc(-c3ccco3)n12`: the GI50 in [1], in assay [2], in assay [4], in assay [5], in assay [6] and in assay [7] was > 100 µM (inactive) in each case. Further, the GI50 in [8] is > 100 µM (inactive); in assay [9], > 100 µM (inactive); in [10], > 100 µM (inactive); in assay [11] it was > 100 µM (inactive); in [12] it was > 100 µM (inactive); in [13] it was 28.2 µM (inactive). The GI50 in [14] is 15.3 µM (inactive); in [15], > 100 µM (inactive).
